Read-outs that look alike come from different tables or passages of the source.
Key:
[1] = system: tumor-immune microenvironment / WNT pathway (AXIN2); assay: NanoString gene expression of paired tumor biopsies (screening vs on treatment), immune gene signatures fitted against AXIN2 change; type: in vivo, human; conditions: for relationship between AXIN2 inhibition and increased expression of the dendritic cell signature (CD103+) / relationship between AXIN2 inhibition and increased expression of the chemokine signature (CD8+ T-cell recruitment): log 2 fold-change screening to on-treatment, 9 paired samples; for relationship between AXIN2 inhibition and increased expression of the dendritic cell signature (CD103+): 15 days of exposure; for relationship between AXIN2 inhibition and increased expression of the chemokine signature (CD8+ T-cell recruitment): about 15 days of exposure
Description: NanoString measures gene expression for a selected panel of up to about 1000 genes. This is executed using uniquely barcoded probes that hybridize directly to target RNAs (ribonucleic acids). The RNA-probe hybrids are then run out on a gel to linearize the barcodes. These barcodes are then counted and then normalized using an internally developed pipeline. […] Tumors were fixed in formalin and embedded in paraffin (FFPE) or directly placed in RNA Later. These samples were transferred to Genoptix where RNA was isolated for real time qPCR analyses of the pharmacodynamics (PD) marker AXIN2. Remnant RNA was transferred to the assay research laboratory (ARL) where gene expression was profiled using (2016) NanoString pan-cancer immune profiling panel as well as a custom design panel of immune-related genes. Gene expression was normalized using methods recommended by NanoString, with the exception that samples were normalized within specific indications (e.g. melanoma or pancreatic cancer samples were normalized separately) and housekeeping genes were selected using the geNorm stability metric [PMID: 12184808]. Certain genes overlapped between both panels, which we used to assess variability and other quality control parameters. […] The count data described herein was normalized according to the methods recommended by NanoString with one exception, namely that the samples were normalized within the specific indications as described herein and approximately 40 housekeeping genes (defined on the NanoString website for their commercially available cancer immune panel, 2016) were used for biological normalization across samples. Gene signatures were used before to probe the data for phenotypic changes in the tumor-immune microenvironment. It has been previously shown that in genetically engineered mice with activated WNT signaling the dendritic cells and T-cells in the tumor microenvironment are inhibited; however, it has not been shown that this effect is reversible. Therefore, our objective was to use gene expression analyses in samples from the patients treated with the Wnt inhibitor to determine the extent to which the inhibitory effects of WNT signaling in the tumor on the proximal immune cells can be reversed by pharmacological inhibition of the WNT pathway. To understand whether the Compound of Formula (I) has effects on the tumor immune microenvironment, we looked at the relationships between immune gene expression and the PD marker AXIN2. By using this marker, we can understand the extent to which the WNT pathway has been inhibited in a given tumor. Instead of focusing on individual genes, we used the geometric average expression of sets of genes (gene signatures) that describe a particular pathway or cellular function. One gene signature is a chemokine signature that is associated with recruitment of CD8+ T-cells [PMID: 19293190] and other signature is associated with activated CD103+ dendritic cells [PMID: 25970248]. Not every subject presented with a strong inhibition of the WNT pathway as evidenced by the fold-changes observed in AXIN2 expression. […] These dendritic cells, when stimulated, function to recruit T-cells to the tumor. Importantly, this observation was made after 15 days of exposure to the Wnt inhibitor, which supported that intermittent dosing of the Compound of Formula (I) could be combined with a checkpoint inhibitor to stimulate an anti-tumor immune response in the context of tumors that previously had lacked immune infiltrate. […] The changes in AXIN2 expression were fitted by linear model to immune signature changes. […] Both are in log 2 scale. A positive value indicates an increase in the average expression of the genes in a given signature or in AXIN2. […] Second, a relationship between interferon gamma (or type II interferon) and AXIN2 inhibition was observed. Interferon gamma is typically expressed by CD8+ T-cells. […]

[2] = clinical study of the Wnt inhibitor: bone events; type: in vivo, human; conditions: patients
Description: The Wnt signaling pathway is required for development and survival of osteoblasts (involved in bone formation) and negatively regulates osteoclasts (involved in bone resorption). […] In addition, the short intermittent dosing of Wnt inhibitor was sufficient to result in upregulation of the activated dendritic cells signature. This is relevant because this subtype of dendritic cell is important for recruiting and activating T cells for an anti-tumoral response. Inhibition of the Wnt signaling in cancer treatment improves the response rate to PD-1 inhibition through release of inhibition of dendritic cells and T-cell activation. Overall, the combination of the Wnt inhibitor (i) and an anti-PD-1 antibody molecule, wherein Wnt inhibitor is administered only at the beginning of the treatment cycle for, e.g. 8 or 15 days, can show mutually coordinated effect of both compounds and offer better efficacy and […] safety profile compared to, for example, use of the Wnt inhibitor (i) alone.

[3] = system: tumor; assay: other single-agent studies: cytotoxic gene signature and tumor efficacy; type: in vivo; conditions: alone as a single agent
Description: (§1) Recently, the secreted glycoproteins R-spondins 1-4 (RSPO1-4) have emerged as important activators of canonical Wnt signaling. RSPOs bind to leucine-rich repeat-containing G-protein-coupled receptors (LGR4-6) and the transmembrane E3 ubiquitin ligases RING finger 43/zinc and RING finger 3 (RNF43/ZNRF3), forming a ternary complex (Chen et al. Genes Dev; 2013, 27, 1345). RNF43/ZNRF3 antagonize Wnt signaling by promoting the turnover of Fz and LRP6 (Hao et al. Nature 2012, 485 (7397), 195-200; Koo et al. Nature, 2012, 488 (7413), 665). Binding of RSPO induces the endocytosis of RNF43/ZNRF3, thereby increasing levels of membrane-bound Fz and LRP6 and enhancing Wnt ligand-mediated signaling. In order to activate signaling within target cells, Wnt proteins must be properly secreted and transported across the extracellular space. Porcupine is a membrane-bound-O-acyltransferase (MBOAT) that adds palmitoyl groups to Wnt proteins (Takada et al. Dev. Cell 2006, 11, 791). […] For example, the Wnt inhibitor of the present disclosure, namely 2-(2′,3-dimethyl-[2,4′-bipyridin]-5-yl)-N-(5-(pyrazin-2-yl)pyridin-2-yl)acetamide was tested and the levels of pLRP6 and AXIN2qPCR were analyzed in biopsies of skin and tumors.

[4] = system: Wnt pathway; assay: pLRP6 and AXIN2 qPCR levels in biopsies of skin and tumors after treatment; type: in vivo, human; conditions: post-treatment skin sample biopsies
Description: as §1

[5] = dog, in vivo
[6] = animal toxicity studies in dog; conditions: dogs
[7] = animal toxicity studies in rat
Description: Recently, the secreted glycoproteins R-spondins 1-4 (RSPO1-4) have emerged as important activators of canonical Wnt signaling. RSPOs bind to leucine-rich repeat-containing G-protein-coupled receptors (LGR4-6) and the transmembrane E3 ubiquitin ligases RING finger 43/zinc and RING finger 3 (RNF43/ZNRF3), forming a ternary complex (Chen et al. Genes Dev; 2013, 27, 1345). RNF43/ZNRF3 antagonize Wnt signaling by promoting the turnover of Fz and LRP6 (Hao et al. Nature 2012, 485 (7397), 195-200; Koo et al. Nature, 2012, 488 (7413), 665). Binding of RSPO induces the endocytosis of RNF43/ZNRF3, thereby increasing levels of membrane-bound Fz and LRP6 and enhancing Wnt ligand-mediated signaling. In order to activate signaling within target cells, Wnt proteins must be properly secreted and transported across the extracellular space. Porcupine is a membrane-bound-O-acyltransferase (MBOAT) that adds palmitoyl groups to Wnt proteins (Takada et al. Dev. Cell 2006, 11, 791). Mutations in components of the canonical Wnt pathway such as APC and β-catenin play important roles in the pathogenesis of some malignancies and those genetic lesions affect upstream Wnt pathway regulation. The inhibition of the Wnt pathway signaling was recently associated with several drawbacks such as side effects and dose limiting toxicities. Such drawbacks were limiting the anti-tumor efficacy of Wnt inhibitors. Separately, activation of the Wnt pathway was linked to resistance to immunotherapy and offers a mechanism by which tumors can evade immune detection and decrease clinical benefit to check-point inhibitors (Spranger et al. Nature 2015, 523, 231). For example, the Wnt inhibitor of the present disclosure, namely 2-(2′,3-dimethyl-[2,4′-bipyridin]-5-yl)-N-(5-(pyrazin-2-yl)pyridin-2-yl)acetamide was tested and the levels of pLRP6 and AXIN2qPCR were analyzed in biopsies of skin and tumors.

[8] = determined within the CPDR001X2101 clinical study; cited from earlier work

## Cc1cc(-c2ncc(CC(=O)Nc3ccc(-c4cnccn4)cn3)cc2C)ccn1 [Compound of Formula (I), 2-(2′,3-dimethyl-[2,4′-bipyridin]-5-yl)-N-(5-(pyrazin-2-yl)pyridin-2-yl)acetamide]
[1]; after 15 days of exposure
  surrounding dendritic cell population on pharmacological inhibition of the WNT pathway: concomitant stimulation
[1]
  relationship between AXIN2 inhibition and increased expression of the dendritic cell signature (CD103+): fairly linear relationship
  relationship between AXIN2 inhibition and increased expression of the chemokine signature (CD8+ T-cell recruitment): fairly linear relationship
[1]; listed as Wnt inhibitor (i)
  relationship between AXIN2 inhibition and increased expression of the dendritic cell signature (CD103+): fairly linear relationships
  relationship between AXIN2 inhibition and increased expression of the chemokine signature (CD8+ T-cell recruitment): fairly linear relationships
[1]; listed as WNT inhibitor (i)
  relationship between AXIN2 inhibition and increased expression of the chemokine signature (CD8+ T-cell recruitment): linear relationship
[1]; log 2 scale, FIG. 4
  relationship between AXIN2 inhibition and T-regulation (T-reg) signature: modest inverse relationship
  relationship between AXIN2 inhibition and mast cell signature: modest inverse relationship
  relationship between type I interferon signature and AXIN2 inhibition: weak relationship
[1]; patient tumor biopsies
  immune cell infiltrates in the tumor-immune microenvironment: increasing immune cell infiltrates
  inhibition of CD103+ dendritic cells: alleviating the inhibition of CD103+ dendritic cells
[1]; patients, Wnt inhibitor alone
  immune signatures in tumors: changes in immune signatures in tumors
[1]; short intermittent dosing
  activated dendritic cells signature: upregulation
[2]
  bone fractures: some patients experienced bone fractures
[3]
  cytotoxic gene signature: increased
  tumor efficacy: lack of tumor efficacy
[4]
  level of AXIN2 (qPCR): inhibited
  level of pLRP6: inhibited
[5]
  toxicities (organs affected): toxicities in gastrointestinal (GI) tract, bones and teeth
[6]
  effects on kidneys: secondary effects
[7]; rat studies
  trabeculae: decrease in trabeculae
[7]; rat, in vivo
  toxicities (organs affected): toxicities in gastrointestinal (GI) tract, bones and teeth
[7]; rats
  effects on bone marrow: secondary effects

## PDR001: anti-PD-1 antibody molecule with VH and VL CDR sequences of BAP049-Clone-E, described in PCT/CN2016/099494
[8]
  RP2D: dose of 400 mg Q4W is the RP2D determined within the CPDR001X2101

Source: patent US11406633B2, “Dosing schedule of a Wnt inhibitor and an anti-PD-1 antibody molecule in combination” (Novartis AG, priority 2017, dated 2022)
